According to PubChem BioAssay AID1259407 (Chemical Carcinogenesis Research Information System (CCRIS), 2018):
Active and inactive are the calls of the source. The rule behind the calls is not given here.

Test system: CCRIS mutagenicity, Ames/micronucleus/aberration tests
Experiment: CCRIS mutagenicity studies
[1] = Test System: AMES SALMONELLA TYPHIMURIUM, Strain/Indicator: TA98, Metabolic Activation: NONE, Method: STANDARD PLATE
[2] = Test System: AMES SALMONELLA TYPHIMURIUM, Strain/Indicator: TA100, Metabolic Activation: NONE, Method: STANDARD PLATE
[3] = Test System: AMES SALMONELLA TYPHIMURIUM, Strain/Indicator: TA1535, Metabolic Activation: NONE, Method: STANDARD PLATE
[4] = Test System: AMES SALMONELLA TYPHIMURIUM, Strain/Indicator: TA98, Metabolic Activation: NONE, Method: PREINCUBATION
[5] = Test System: AMES SALMONELLA TYPHIMURIUM, Strain/Indicator: TA100, Metabolic Activation: NONE, Method: PREINCUBATION
[6] = Test System: AMES SALMONELLA TYPHIMURIUM, Strain/Indicator: TA100, Metabolic Activation: S-9, Method: STANDARD PLATE

Which results are given for `O=C1CCC(=O)N1O`?
mutagenic call [1]: inactive; negative; mutagenic call (Test System: AMES SALMONELLA TYPHIMURIUM, Strain/Indicator: TA98, Metabolic Activation: RAT, LIVER, S-9, AROCLOR 1254, Method: STANDARD PLATE): inactive; negative; mutagenic call [2]: inactive; negative; mutagenic call (Test System: AMES SALMONELLA TYPHIMURIUM, Strain/Indicator: TA100, Metabolic Activation: RAT, LIVER, S-9, AROCLOR 1254, Method: STANDARD PLATE): inactive; negative; mutagenic call [3]: inactive; negative; mutagenic call (Test System: AMES SALMONELLA TYPHIMURIUM, Strain/Indicator: TA1535, Metabolic Activation: RAT, LIVER, S-9, AROCLOR 1254, Method: STANDARD PLATE): inactive; negative; mutagenic call (Test System: AMES SALMONELLA TYPHIMURIUM, Strain/Indicator: TA1537, Metabolic Activation: NONE, Method: STANDARD PLATE): inactive; negative; mutagenic call (Test System: AMES SALMONELLA TYPHIMURIUM, Strain/Indicator: TA1537, Metabolic Activation: RAT, LIVER, S-9, AROCLOR 1254, Method: STANDARD PLATE): inactive; negative

How did the mutagenic call [4] turn out when `CCOC(=O)/C=C/c1ccc([N+](=O)[O-])o1` was run?
Its mutagenic call is “active; positive”.

For `Nc1ccccc1-c1ccccc1`, which mutagenic call (End Point: IN VITRO CHROMOSOMAL ABERRATIONS, Test System: CHO CELLS, Metabolic Activation: RAT, LIVER, S-9, AROCLOR 1254) is on record?
Its mutagenic call is “inactive; negative”.

And the mutagenic call (End Point: IN VITRO CHROMOSOMAL ABERRATIONS, Test System: CHO-WBL CELLS, Metabolic Activation: RAT, LIVER, S-9, PHENOBARBITAL AND BETA-NAPHTHOFLAVONE)?
Its mutagenic call is “active; positive (at 24 hr)”.

What about the mutagenic call (Test System: AMES SALMONELLA TYPHIMURIUM, Strain/Indicator: TA97, Metabolic Activation: HAMSTER, LIVER, S-9, AROCLOR 1254 (10%), Method: PREINCUBATION) of the same compound?
The mutagenic call was “inactive; negative”.

What about the mutagenic call (Test System: AMES SALMONELLA TYPHIMURIUM, Strain/Indicator: TA97, Metabolic Activation: NONE, Method: PREINCUBATION) of the same compound?
Its mutagenic call is “inactive; negative”.

And the mutagenic call (Test System: AMES SALMONELLA TYPHIMURIUM, Strain/Indicator: TA97, Metabolic Activation: RAT, LIVER, S-9, AROCLOR 1254 (10%), Method: PREINCUBATION)?
The mutagenic call was “inactive; negative”.

And the mutagenic call (Test System: AMES SALMONELLA TYPHIMURIUM, Strain/Indicator: TA98, Metabolic Activation: HAMSTER, LIVER, S-9, AROCLOR 1254 (10%), Method: PREINCUBATION)?
Its mutagenic call is “inactive; negative”.

What about the mutagenic call [4] of the same compound?
The mutagenic call was “inactive; negative”.

What about the mutagenic call [1] of the same compound?
Its mutagenic call is “inactive; negative”.

What about the mutagenic call (Test System: AMES SALMONELLA TYPHIMURIUM, Strain/Indicator: TA98, Metabolic Activation: RAT LIVER S-9, AROCLOR 1254, Method: PREINCUBATION) of the same compound?
Its mutagenic call is “inactive; negative”.

What about the mutagenic call (Test System: AMES SALMONELLA TYPHIMURIUM, Strain/Indicator: TA98, Metabolic Activation: RAT, LIVER, S-9, AROCLOR 1254 (4%), Method: STANDARD PLATE) of the same compound?
The mutagenic call was “inactive; negative”.

What about the mutagenic call (Test System: AMES SALMONELLA TYPHIMURIUM, Strain/Indicator: TA98, Metabolic Activation: RAT, LIVER, S-9, AROCLOR 1254 (10%), Method: PREINCUBATION) of the same compound?
The mutagenic call was “inactive; negative”.

And the mutagenic call (Test System: AMES SALMONELLA TYPHIMURIUM, Strain/Indicator: TA100, Metabolic Activation: HAMSTER, LIVER, S-9, AROCLOR 1254 (10%), Method: PREINCUBATION)?
The mutagenic call was “active; positive”.

What about the mutagenic call [5] of the same compound?
Its mutagenic call is “inactive; negative”.

And the mutagenic call [2]?
Its mutagenic call is “inactive; negative”.

What about the mutagenic call (Test System: AMES SALMONELLA TYPHIMURIUM, Strain/Indicator: TA100, Metabolic Activation: RAT LIVER S-9, AROCLOR 1254, Method: PREINCUBATION) of the same compound?
Its mutagenic call is “inactive; negative”.

And the mutagenic call (Test System: AMES SALMONELLA TYPHIMURIUM, Strain/Indicator: TA100, Metabolic Activation: RAT, LIVER, S-9, AROCLOR 1254 (10%), Method: PREINCUBATION)?
Its mutagenic call is “active; positive”.

And the mutagenic call (Test System: AMES SALMONELLA TYPHIMURIUM, Strain/Indicator: TA1535, Metabolic Activation: HAMSTER, LIVER, S-9, AROCLOR 1254 (10%), Method: PREINCUBATION)?
Its mutagenic call is “inactive; negative”.

And the mutagenic call (Test System: AMES SALMONELLA TYPHIMURIUM, Strain/Indicator: TA1535, Metabolic Activation: NONE, Method: PREINCUBATION)?
Its mutagenic call is “inactive; negative”.

And the mutagenic call (Test System: AMES SALMONELLA TYPHIMURIUM, Strain/Indicator: TA1535, Metabolic Activation: RAT, LIVER, S-9, AROCLOR 1254 (10%), Method: PREINCUBATION)?
The mutagenic call was “inactive; negative”.

Which results are given for `CCN(CC)C(=O)/C(Cl)=C(\C)OP(=O)(OC)OC`?
mutagenic call (End Point: IN VITRO CHROMOSOMAL ABERRATIONS, Test System: HUMAN PERIPHERAL BLOOD LYMPHOCYTES, Metabolic Activation: NONE): active; positive (structural changes); mutagenic call (Test System: AMES SALMONELLA TYPHIMURIUM, Strain/Indicator: G46, Metabolic Activation: HOST-MEDIATED, Method: STANDARD PLATE): active; positive; mutagenic call (Test System: AMES SALMONELLA TYPHIMURIUM, Strain/Indicator: TA97A, Metabolic Activation: NONE, Method: STANDARD PLATE): inactive; negative; mutagenic call (Test System: AMES SALMONELLA TYPHIMURIUM, Strain/Indicator: TA97A, Metabolic Activation: PLANT, HOMOGENATE, S-14, Method: STANDARD PLATE): inactive; negative; mutagenic call (Test System: AMES SALMONELLA TYPHIMURIUM, Strain/Indicator: TA97A, Metabolic Activation: S-9, Method: STANDARD PLATE): inactive; negative; mutagenic call [1]: inactive; negative; mutagenic call (Test System: AMES SALMONELLA TYPHIMURIUM, Strain/Indicator: TA98, Metabolic Activation: PLANT, HOMOGENATE, S-14, Method: STANDARD PLATE): inactive; negative; mutagenic call (Test System: AMES SALMONELLA TYPHIMURIUM, Strain/Indicator: TA98, Metabolic Activation: S-9, Method: STANDARD PLATE): inactive; negative; mutagenic call [5]: active; positive; mutagenic call (Test System: AMES SALMONELLA TYPHIMURIUM, Strain/Indicator: TA100, Metabolic Activation: PLANT, HOMOGENATE, S-14, Method: STANDARD PLATE): inactive; negative; mutagenic call [6]: inactive; negative; mutagenic call (Test System: AMES SALMONELLA TYPHIMURIUM, Strain/Indicator: TA102, Metabolic Activation: NONE, Method: STANDARD PLATE): inactive; negative; mutagenic call (Test System: AMES SALMONELLA TYPHIMURIUM, Strain/Indicator: TA104, Metabolic Activation: NONE, Method: STANDARD PLATE): inactive; negative; mutagenic call [3]: inactive; negative; mutagenic call (Test System: AMES SALMONELLA TYPHIMURIUM, Strain/Indicator: TA1535, Metabolic Activation: PLANT, HOMOGENATE, S-14, Method: STANDARD PLATE): inactive; negative; mutagenic call (Test System: AMES SALMONELLA TYPHIMURIUM, Strain/Indicator: TA1535, Metabolic Activation: S-9, Method: STANDARD PLATE): inactive; negative

With `O=C(CCCCl)N=c1sn(C(=O)CCCCl)c2ccc(Cl)cc12` as the compound, how does the mutagenic call [6] read?
Its mutagenic call is “active; positive”.
